The text below walks through data of patent US20230099344A1, “COMPOUNDS AND METHODS FOR THE TARGETED DEGRADATION OF IRAK-4” (Arvinas Operations, Inc., priority 2021, published 2023).

Where only a bound is given, the exact number is not on record here.

For this assay, the target named is T1, IRAK-4 (Homo sapiens, UniProt Q9NWZ3).
T1 sequence (Q9NWZ3 1-460): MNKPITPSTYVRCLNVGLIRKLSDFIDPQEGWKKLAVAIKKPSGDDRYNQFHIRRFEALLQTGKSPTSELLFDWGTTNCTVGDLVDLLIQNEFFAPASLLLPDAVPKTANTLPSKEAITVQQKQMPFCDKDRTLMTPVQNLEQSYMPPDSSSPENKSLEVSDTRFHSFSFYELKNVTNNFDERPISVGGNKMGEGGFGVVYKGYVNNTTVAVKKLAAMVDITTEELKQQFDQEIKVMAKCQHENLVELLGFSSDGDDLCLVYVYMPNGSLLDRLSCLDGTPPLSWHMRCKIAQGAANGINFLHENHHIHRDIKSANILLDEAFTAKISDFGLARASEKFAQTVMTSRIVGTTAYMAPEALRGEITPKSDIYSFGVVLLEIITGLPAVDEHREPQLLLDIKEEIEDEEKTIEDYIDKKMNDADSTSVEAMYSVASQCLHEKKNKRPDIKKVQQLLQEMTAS
Description: IRAK-4 ELISA, PBMC degradation. Format: cell-based. More on the design: endogenous in cells; host or cells: PBMC. Particulars: treated overnight. The essentials:
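Steps: seed cells (OCI-Ly10 1×10^6/ml; PBMC 2×10^6/ml); add compound the same day; incubate overnight; lyse; quantify IRAK-4 by matched-pair ELISA.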
Background: ELISA stands for enzyme-linked immunosorbent assay.

Take `CC(C)Oc1cc2nn(C3CCN(CC4(F)CCN(c5ccc6c(c5)C(=O)N(C5CCC(=O)NC5=O)C6=O)CC4)CC3)cc2cc1NC(=O)c1cnn2cccnc12` (stereo not drawn) [Example 188]: the DC50 lay in the range of 5 to 10 nM, the Dmax is ≥ 90% and the “PBMC DC90” value was “D (D represents a DC90 value ≥50 nM)”.

Regarding `CCOc1cc2nn(C3CCN(CC4(F)CN(c5ccc6c(c5)C(=O)N(C5CCC(=O)NC5=O)C6=O)C4)CC3)cc2cc1NC(=O)c1cnn2cccnc12` (stereo not drawn) [Example 195], the half-maximal degradation concentration (DC50) lay within 1 to 5 nM; the Dmax is ≥ 90%; the “PBMC DC90” value was “B (B represents a DC90 value ≥10.0 nM and <25.0 nM)”.

For `CC(C)Oc1cc2c(cc1NC(=O)c1cnn3cccnc13)CN([C@H]1CC[C@H](N3CCN(c4ccc5c(c4)CN(C4CCC(=O)NC4=O)C5=O)CC3)CC1)C2=O` (stereo partly drawn) [Example 273, N-(2-((1r,4r)-4-(4-(2-(2,6-dioxopiperidin-3-yl)-1-oxoisoindolin-5-yl)piperazin-1-yl)cyclohexyl)-6-isopropoxy-1-oxoisoindolin-5-yl)pyrazolo[1,5-a]pyrimidine-3-carboxamide], the DC50 is < 1 nM, the Dmax is ≥ 90% and the “PBMC DC90” value is listed as “A (A represents a DC90 value <10.0 nM)”.

`COc1cc(CCN2CCC(N3Cc4cc(NC(=O)c5cnn6cccnc56)c(OC(C)C)cc4C3=O)CC2)cc2c1C(=O)N(C1CCC(=O)NC1=O)C2` (stereo not drawn) [Example 11]: the DC50 was in the range of 1 to 5 nM; the Dmax was ≥ 90%; the “PBMC DC90” value is “C (C represents a DC90 value ≥25.0 nM and <50 nM)”.

For `CN(CC1CCN(c2ccc3c(c2)C(=O)N(C2CCC(=O)NC2=O)C3=O)CC1)[C@H]1CC[C@H](n2cc3cc(NC(=O)c4cnn5cccnc45)c(OCC4CC4)cc3n2)CC1` (stereo partly drawn) [Example 349], the DC50 is < 1 nM, the maximal degradation (Dmax) was in the range of 80 to 90% and the “PBMC DC90” value was “A (A represents a DC90 value <10.0 nM)”.

For `CCN(C1CCC(N2Cc3cc(NC(=O)c4cnn5cccnc45)c(OC(C)C)cc3C2=O)CC1)C1CN(c2ccc3c(c2)CN(C2CCC(=O)NC2=O)C3=O)C1` (stereo not drawn) [Example 330], the half-maximal degradation concentration (DC50) was < 1 nM, the Dmax is ≥ 90% and the “PBMC DC90” value is reported as “A (A represents a DC90 value <10.0 nM)”.

As to `CC(C)Oc1cc2c(cc1NC(=O)c1cnn3cccnc13)CN(C1CCN(C[C@@H]3CN(c4ccc5c(c4)C(=O)N(C4CCC(=O)NC4=O)C5=O)CCO3)CC1)C2=O` (stereo partly drawn) [Example 78], the DC50 was < 1 nM, the Dmax was ≥ 90% and the “PBMC DC90” value is listed as “A (A represents a DC90 value <10.0 nM)”.

Take `CC(C)Oc1cc2c(cc1NC(=O)c1cnn3cccnc13)CN(C1CCN(C[C@H]3CCN(c4ccc5c(c4)C(=O)N(C4CCC(=O)NC4=O)C5=O)C3)CC1)C2=O` (stereo partly drawn) [Example 83]: the DC50 was in the range of 1 to 5 nM, the Dmax is ≥ 90% and the “PBMC DC90” value was “A (A represents a DC90 value <10.0 nM)”.

On to `O=C1CCC(N2C(=O)c3cc(F)c(N4CC(CN5CCC(n6cc7cc(NC(=O)c8cnn9cccnc89)c(OCC8CC8)cc7n6)CC5)C4)cc3C2=O)C(=O)N1` (stereo not drawn) [Example 221], for which the DC50 lay within 1 to 5 nM; the Dmax was < 70%; the “PBMC DC90” value is “B (B represents a DC90 value ≥10.0 nM and <25.0 nM)”.

For the compound `O=C1CCC(N2C(=O)c3ccc(N4CCC[C@@H](CN5CCC(n6cc7cc(NC(=O)c8cnn9cccnc89)c(OCC8CC8)cc7n6)CC5)C4)cc3C2=O)C(=O)N1` (stereo partly drawn) [Example 175], the DC50 fell in the range of 1 to 5 nM; the Dmax was ≥ 90%; the “PBMC DC90” value is “B (B represents a DC90 value ≥10.0 nM and <25.0 nM)”.

With `CC(C)Oc1cc2nn(C3CCN(CCC4(F)CN(c5ccc6c(c5)C(=O)N(C5CCC(=O)NC5=O)C6=O)C4)CC3)cc2cc1NC(=O)c1cnn2cccnc12` (stereo not drawn) [Example 139], the DC50 was < 1 nM, the Dmax fell in the range of 80 to 90% and the “PBMC DC90” value is “A (A represents a DC90 value <10.0 nM)”.

Regarding `O=C1CCC(N2C(=O)c3ccc(N4CC[C@H](N5CCC(n6cc7cc(NC(=O)c8cnn9cccnc89)c(OCC8CC8)cc7n6)CC5)C4)cc3C2=O)C(=O)N1` (stereo partly drawn) [Example 225], the DC50 lay in the range of 1 to 5 nM; the Dmax was 80 to 90%; the “PBMC DC90” value was “B (B represents a DC90 value ≥10.0 nM and <25.0 nM)”.

For the compound `O=C1CCC(NC(=O)c2ccc(N3CC(F)(CN4CCC(n5cc6cc(NC(=O)c7cnn8cccnc78)c(OCC7CC7)cc6n5)CC4)C3)cc2F)C(=O)N1` (stereo not drawn) [Example 291], the DC50 fell in the range of 1 to 5 nM; the Dmax was ≥ 90%; the “PBMC DC90” value is “B (B represents a DC90 value ≥10.0 nM and <25.0 nM)”.

Consider `O=C1CCC(N2C(=O)c3cccc(N4CC(F)(CN5CCC(n6cc7cc(NC(=O)c8cnn9cccnc89)c(OCC8CC8)cc7n6)CC5)C4)c3C2=O)C(=O)N1` (stereo not drawn) [Example 270, N-(6-(cyclopropylmethoxy)-2-(1-((1-(2-(2,6-dioxopiperidin-3-yl)-1,3-dioxoisoindolin-4-yl)-3-fluoroazetidin-3-yl)methyl)piperidin-4-yl)-2H-indazol-5-yl)pyrazolo[1,5-a]pyrimidine-3-carboxamide], for which the DC50 is ≥ 10 nM, the Dmax is < 70% and the “PBMC DC90” value is recorded as “D (D represents a DC90 value ≥50 nM)”.

In the case of `CNc1ccn2ncc(C(=O)Nc3cc4cn(C5CCN(CC6(F)CN(c7ccc8c(c7)C(=O)N(C7CCC(=O)NC7=O)C8=O)C6)CC5)nc4cc3OCC3CC3)c2n1` (stereo not drawn) [Example 237], the DC50 was 1 to 5 nM, the Dmax lay in the range of 70 to 80% and the “PBMC DC90” value is on record as “D (D represents a DC90 value ≥50 nM)”.

Consider `O=C1CCC(N2C(=O)c3ccc(N4CCC[C@H](CN5CCC(n6cc7cc(NC(=O)c8cnn9cccnc89)c(OCC8CC8)cc7n6)CC5)C4)cc3C2=O)C(=O)N1` (stereo partly drawn) [Example 174], for which the DC50 lay in the range of 1 to 5 nM; the Dmax is ≥ 90%; the “PBMC DC90” value was “B (B represents a DC90 value ≥10.0 nM and <25.0 nM)”.

Regarding `O=C1CCC(N2Cc3cc(N4CC(F)(CN5CCC(n6cc7cc(NC(=O)c8cnn9cccnc89)c(OCC8CC8)cc7n6)CC5)C4)c(F)cc3C2=O)C(=O)N1` (stereo not drawn) [Example 421], the DC50 is < 1 nM, the Dmax lay within 80 to 90% and the “PBMC DC90” value is listed as “A (A represents a DC90 value <10.0 nM)”.

Turning to `CC(C)Oc1cc2c(cc1NC(=O)c1cnn3cccnc13)CN(CCOCC1CCN(c3ccc4c(c3)C(=O)N(C3CCC(=O)NC3=O)C4=O)CC1)C2=O` (stereo not drawn) [Example 90], the DC50 is < 1 nM, the Dmax is ≥ 90% and the “PBMC DC90” value is on record as “A (A represents a DC90 value <10.0 nM)”.

As for `COc1cc(N2CC(CN3CCC(n4cc5cc(NC(=O)c6cnn7cccnc67)c(OCC6CC6)cc5n4)CC3)C2)cc2c1C(=O)N(C1CCC(=O)NC1=O)C2` (stereo not drawn) [Example 124], the 50% degradation concentration (DC50) is < 1 nM, the maximal degradation (Dmax) was ≥ 90% and the “PBMC DC90” value is reported as “A (A represents a DC90 value <10.0 nM)”.

Consider `CC(C)Oc1cc2nn(C3CCN(CC4CN(c5ccc6c(c5)C(=O)N(C5CCC(=O)NC5=O)C6=O)C4)CC3)cc2cc1NC(=O)c1cnn2cccnc12` (stereo not drawn) [Example 187], for which the 50% degradation concentration (DC50) was < 1 nM, the greatest degradation seen (Dmax) was ≥ 90% and the “PBMC DC90” value was “A (A represents a DC90 value <10.0 nM)”.

In the case of `O=C1CCC(N2C(=O)c3ccc(N4CC(CN5CCC(n6cc7cc(NC(=O)c8cnn9cccnc89)c(OC8CCC8)cc7n6)CC5)C4)cc3C2=O)C(=O)N1` (stereo not drawn) [Example 197], the DC50 is < 1 nM, the Dmax fell in the range of 80 to 90% and the “PBMC DC90” value is “A (A represents a DC90 value <10.0 nM)”.

With `O=C1CCC(N2C(=O)c3ccc(N4CC(F)(CN5CCC(N6Cc7cc(NC(=O)c8cnn9cccnc89)c(C8CC8)cc7C6=O)CC5)C4)cc3C2=O)C(=O)N1` (stereo not drawn) [Example 100], the DC50 is 1 to 5 nM; the Dmax is ≥ 90%; the “PBMC DC90” value is “B (B represents a DC90 value ≥10.0 nM and <25.0 nM)”.

In the case of `CC(C)Oc1cc2c(cc1NC(=O)c1cnn3cccnc13)CN(C1CCN(CC3CCN(c4ccc(C(=O)NC5CCC(=O)NC5=O)c(F)c4)CC3)CC1)C2=O` (stereo not drawn) [Example 286, N-[2-[1-[[1-[4-[(2,6-dioxo-3-piperidyl)carbamoyl]-3-fluoro-phenyl]-4-piperidyl]methyl]-4-piperidyl]-6-isopropoxy-1-oxo-isoindolin-5-yl]pyrazolo[1,5-a]pyrimidine-3-carboxamide], the DC50 lay in the range of 1 to 5 nM; the Dmax was ≥ 90%; the “PBMC DC90” value is “B (B represents a DC90 value ≥10.0 nM and <25.0 nM)”.

`CC(C)Oc1cc2nn(C3CCN(CC4(C)CN(c5ccc6c(c5)C(=O)N(C5CCC(=O)NC5=O)C6=O)C4)CC3)cc2cc1NC(=O)c1cnn2cccnc12` (stereo not drawn) [Example 192]: the DC50 is 1 to 5 nM, the Dmax was 80 to 90% and the “PBMC DC90” value is recorded as “A (A represents a DC90 value <10.0 nM)”.

Take `CN(C1CCC(n2cc3cc(NC(=O)c4cnn5cccnc45)c(OCC4CC4)cc3n2)CC1)C1CCN(c2ccc3c(c2)C(=O)N(C2CCC(=O)NC2=O)C3)CC1` (stereo not drawn) [Example 354]: the half-maximal degradation concentration (DC50) is < 1 nM, the Dmax lay within 70 to 80% and the “PBMC DC90” value was “D (D represents a DC90 value ≥50 nM)”.

For the compound `CC(C)Oc1nc2c(cc1NC(=O)c1cnn3cccnc13)CN(C1CCN(CC3CN(c4ccc5c(c4)CN(C4CCC(=O)NC4=O)C5=O)C3)CC1)C2=O` (stereo not drawn) [Example 401], the DC50 lay in the range of 1 to 5 nM; the maximal degradation (Dmax) is ≥ 90%; the “PBMC DC90” value is “B (B represents a DC90 value ≥10.0 nM and <25.0 nM)”.

Usually DC50 stands for the midpoint of the concentration-degradation curve. Higher therefore signals degradation only at high concentration. As a reminder, the Dmax is the greatest extent of degradation seen. Higher therefore signals a fuller loss of target.
